This assay has as its system Meloidogyne incognita. Briefly: 96-well microplate bioassay of nematicidal activity of culture filtrates on Meloidogyne spp. larva suspension. To be noted: 1 μg/mL, control drug, after 3 days. As for the experimental part:
To select filamentous fungi having an excellent nematicidal activity, the present inventors have received 61 culture filtrates of filamentous fungi to screen their nematicidal activities. Specifically, roots of a tomato plant infected with Meloidogyne spp. were washed with running water to remove foreign substances. Thereafter, the well-washed roots were cut into pieces at intervals of 1 cm or less, and put into a blender. Then, a 0.5% sodium hypochlorite solution was added at such an amount that the roots were immersed, and the roots were ground for one minute. Subsequently, the ground roots were filtered through a 65 μm sieve to remove root debris, and the eggs passed through the sieve were collected through a 25 μm sieve, and then washed with sterilized water several times. A concentration of the collected Meloidogyne spp. eggs was measured using a stereoscopic microscope.
The nematicidal activities of the culture filtrates of the 61 fungi were screened using a 96-well microplate bioassay. 45 μL of a Meloidogyne spp. larva suspension, which includes approximately 50 larvae, was added to each of holes, and then treated with a 10% culture filtrate. After 3 days of the sample treatment, the nematicidal activity was determined using the following equation. […]

From patent publication US20220119761A1, “ASPERGILLUS NIGER F22 STRAIN HAVING NEMATICIDAL ACTIVITY AGAINST PLANT-PARASITIC NEMATODES, AND USE THEREOF” (INDUSTRY FOUNDATION OF CHONNAM NATIONAL UNIVERSITY, priority 2015, published 2022) come the findings set out here.

Substance abamectin yielded a nematicidal activity of 95%.
